Experimental data published in US7078395B1, “Methods for treating or preventing cancer by preventing, inhibiting or arresting cell cycling” (priority 1999, dated 2006).

Columns and labels:
[1] = test system: MCF-7 breast cancer cells; experiment: Cell morphology by photomicrographs; assay type: cell-based; settings: 1 μM, 24 h
Method: MCF-7 (ER+) and MDA-MB-231 (ER−) breast cancer cells were obtained from the American Type Culture Collection (Rockville, Md.). Cells were routinely cultured in 25 cm^2 culture flasks in Eagle's minimum essential medium (EMEM) with Hepes buffer (20 mM). This medium was supplemented with L-glutamine (2 mM), sodium hydrogen carbonate (10 mM), 1% non-essential amino acids and 5% (v/v) foetal calf serum (FCS). Before adding test compounds, cells were washed with phosphate-buffered saline (PBS) and treatments added in phenol-red free medium containing 2% stripped FCS and supplements. The effects of 2-MeOE1 or 2-MeOEMATE on the growth of MCF-7 cells was assessed using a Cell Titer 96 cell proliferation assay (Promega, Southampton, Hants, UK) according to the manufacturers' instructions. For this, cells (5000 per well) were cultured in medium containing phenol-red and 10% FCS and were exposed to a drug for 4 days before the assay was performed. For MDA-MB-231 cells, cell numbers were determined using a Coulter counter.
Photomicrographs of control and treated cells were taken under normal conditions of light and exposure using an Olympus SL35 Type 12 camera under an Olympus CK2 microscope (×100 magnification).

[2] = test system: MCF-7 breast cancer cells; experiment: Irreversible inhibition of cell growth, Stage 1 and Stage 2 (Coulter cell counter); assay type: cell-based; settings: for cell numbers, % of the control cell number, Stage 1: 6 days
Method: MCF-7 breast cancer cells were seeded into multi-well culture plates at a density of 10^5 cells/well. Cells were allowed to attach and grown until about 30% confluent when they were treated as follows:
Cells were grown for 6 days in growth medium containing the above drugs with changes of medium/drug every 3 days. At the end of this period cell numbers were counted using a Coulter cell counter.
After treatment of cells for a 6-day period with the above drugs cells were re-seeded at a density of 10^4 Cells/well. No further treatments were added. Cells were allowed to continue to grow for a further 6 days in the presence of growth medium. At the end of this period cell numbers were again counted.
Stages 1 and 2 described above were repeated using Control—no treatment, EMATE 20 μM and EMATE 5 μM.
MCF-7 breast cancer cells were seeded into multi-well culture plates at a density of 10^5 cells/well. Cells were allowed to attach and grown until about 30% confluent when they were treated as follows: • Control—no treatment • Compound of Interest (COI) 20 μM
Cells were grown for 6 days in growth medium containing the COI with changes of medium/COI every 3 days. At the end of this period cell numbers were counted using a Coulter cell counter.
After treatment of cells for a 6-day period with the COI cells were re-seeded at a density of 10^4 cells/well. No further treatments were added. Cells were allowed to continue to grow for a further 6 days in the presence of growth medium. At the end of this period cell numbers were again counted.

steroid sulphatase = molecular target: T1, steroid sulphatase (Homo sapiens, UniProt P08842); settings: compared with EMATE (18, 19); cited from earlier work
T1 sequence (P08842 22-583): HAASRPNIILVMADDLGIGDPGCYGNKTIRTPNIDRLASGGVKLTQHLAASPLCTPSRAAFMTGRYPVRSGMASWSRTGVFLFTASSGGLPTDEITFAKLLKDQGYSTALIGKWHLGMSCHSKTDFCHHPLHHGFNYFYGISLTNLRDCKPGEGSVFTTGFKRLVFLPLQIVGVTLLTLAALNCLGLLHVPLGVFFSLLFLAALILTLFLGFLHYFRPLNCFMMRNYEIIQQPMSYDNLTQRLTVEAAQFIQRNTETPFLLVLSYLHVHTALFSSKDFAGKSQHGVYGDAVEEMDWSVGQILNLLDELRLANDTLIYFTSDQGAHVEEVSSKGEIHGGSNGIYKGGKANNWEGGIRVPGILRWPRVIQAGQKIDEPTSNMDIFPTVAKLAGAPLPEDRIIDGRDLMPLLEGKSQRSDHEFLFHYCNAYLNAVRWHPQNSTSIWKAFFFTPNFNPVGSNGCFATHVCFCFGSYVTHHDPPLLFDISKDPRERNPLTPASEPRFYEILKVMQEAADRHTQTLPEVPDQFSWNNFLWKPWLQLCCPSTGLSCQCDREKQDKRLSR

## COc1cc2c(cc1OS(N)(=O)=O)CCC1C2CC[C@]2(C)C(=O)CCC12 (some centres unmarked) [2-MeOEMATE, 2-methoxyoestrone-3-O-sulphamate]
[1]
  effect on cell morphology: significant increase in the number of rounded and detached cells
[2]; 1 m (so in the source)
  cell numbers, % of the control cell number, Stage 1: 52%
[2]; 5 μm
  cell numbers, % of the control cell number, Stage 1: 43%
[2]; re-seeded after 6-day treatment, further 6 days without drug
  effect on cell numbers, Stage 2 (irreversible growth inhibition): severely growth restricted
Steroid sulphatase
  potency as a steroid sulphatase inhibitor: equipotent with EMATE
